Source: patent publication US5430053A, “Isolation and structure of dictyostatin 1” (Arizona Board of Regents acting on behalf of Arizona State …, priority 1994, dated 1995)
Converted amounts (≈) assume the structure as drawn. “Also recorded” adds a separate entry of the source. Like-named read-outs stand apart in the source and are kept apart here.

Columns and labels:
[1] = system: KM 20L2 colon; assay: NCI panel, KM 20L2; assay type: cell-based, human
From the text: (§1) Only two hundred years ago, many diseases ravaged humankind. Many of these diseases now have been controlled or eradicated. In the development of the means to treat or control these diseases, work with the appropriate common experimental animals was of critical importance. With the various types of cancers, and with the HIV virus, such work is presently ongoing. The research for the treatment of various types of cancer is coordinated in the United States by the National Cancer Institute (NCI). NCI, as a government entity, has been charged with assisting, inter alia, anti-cancer research. To determine whether a substance has anti-cancer activity, NCI has established a variety of protocols, one of which involves testing the candidate substance against a cell line panel containing 60 human tumor cell lines. This protocol has been verified and is generally accepted throughout the scientific community. This protocol and the established statistical means of evaluating the results obtained therefrom have been fully described in the literature. See Principles & Practice of Oncology PPO Updates, Volume 3, Number 10, October 1989, by Michael R. Boyd, M.D., Ph.D., for an in depth description of the test protocol. […]

[2] = system: SK-MEL-5 melanoma; assay: NCI panel, SK-MEL-5; assay type: cell-based, human
From the text: as §1

[3] = system: P388 lymphocytic leukemia; assay: P388 lymphocytic leukemia cell line (PS system) growth inhibition; assay type: cell-based, murine
[4] = system: OVCAR-3 ovarian; assay: NCI panel, OVCAR-3; assay type: cell-based, human
From the text: as §1

[5] = system: SF-295 CNS; assay: NCI panel, SF-295; assay type: cell-based, human
From the text: as §1

[6] = system: human cancer cell lines; assay: NCI panel of sixty human cancer cell lines; assay type: cell-based; conditions: for activity against human cancer cell lines (in words): NCI panel
From the text: Only two hundred years ago, many diseases ravaged humankind. Many of these diseases now have been controlled or eradicated. In the development of the means to treat or control these diseases, work with the appropriate common experimental animals was of critical importance. With the various types of cancers, and with the HIV virus, such work is presently ongoing. The research for the treatment of various types of cancer is coordinated in the United States by the National Cancer Institute (NCI). NCI, as a government entity, has been charged with assisting, inter alia, anti-cancer research. To determine whether a substance has anti-cancer activity, NCI has established a variety of protocols, one of which involves testing the candidate substance against a cell line panel containing 60 human tumor cell lines. This protocol has been verified and is generally accepted throughout the scientific community. This protocol and the established statistical means of evaluating the results obtained therefrom have been fully described in the literature. See Principles & Practice of Oncology PPO Updates, Volume 3, Number 10, October 1989, by Michael R. Boyd, M.D., Ph.D., for an in depth description of the test protocol. The statistical analysis of the test protocol is explained in "Display and Analysis of Patterns of Differential Activity of Drugs Against Human Tumor Cell Lines: Development of Means Graph and COMPARE Algorithm" Journal of the National Cancer Institute Reports Vol. 81, No. 14, Pg. 1088, Jul. 14, 1989, by K. D. Paull et al. The context of both of these references is specifically incorporated herein by this reference thereto.

[7] = system: A-498 renal; assay: NCI panel, A-498; assay type: cell-based, human
From the text: as §1

[8] = system: NCI H460 non-small cell lung; assay: NCI panel, NCI H460; assay type: cell-based, human
From the text: as §1

## C=C/C=C\C(C)C1OC(=O)/C=C\C=C\C(C)C(O)CC(O)/C=C\C(C)C(O)C(C)CC(C)CCC(O)C1C (stereo not drawn) [dictyostatin 1]
[1]
  activity against KM 20L2 (in words): active and selective
[2]
  activity against SK-MEL-5 (in words): active and selective
[3]
  growth inhibition of murine P388 lymphocytic leukemia (in words): strongly inhibit growth
[3]; Mus musculus, P388, pure dictyostatin 1, read-out: P388 ED50
  IC50: 0.38 ng/mL (≈ 0.713 nM)
[3]; listed as Dictyostatin 1
  growth inhibition of murine P388 lymphocytic leukemia (in words): phenomenally potent (and selective) activity; also recorded: strongly inhibit growth
[4]
  activity against OVCAR-3 (in words): active and selective
[5]
  activity against SF-295 (in words): active and selective
[6]
  activity against human cancer cell lines (in words): strong cancer cell growth inhibitory properties; also recorded: remarkably potent and specific
[6]; listed as Dictyostatin 1
  activity against human cancer cell lines (in words): phenomenally potent (and selective) activity; also recorded: strongly inhibit growth
[6]; ovarian, CNS, renal, lung (non small cell), colon, and melanoma cells
  NCI data (in words): extremely positive results
[7]
  activity against A-498 (in words): active and selective
[8]
  activity against NCI H460 (in words): active and selective
